Reference: patent US6200962A, “Thionophosphate derivatives, process for their preparation and pharmaceutical compositions containing them” (priority 1994, dated 2001)

Legend:
[1] = Pro-oxidative effect: oxygen consumption with copper; conditions: for oxygen consumption: 10 mM, Cu2+ 10 mM, pH 7.2, 37 °C; for Rate of oxygen consumption: Table 1, 10 mM with Cu2+ 10 mM
Experimental: Oxygen consumption from solutions that contained AMTPs or other antioxidants such as cystine or ascorbic acid at 10 mM each, and copper sulfate 10 mM, was monitored by Biological Oxygen Monitor, model YSI 53.
AMTP molecules (10 mM) were incubated at pH=7.2 37° C. with Cu^2+ (10 mM). Oxygen consumption from the solution was measured with a Clark electrode (biological oxygen monitor). No oxygen consumption was observed from the solution. […] The oxygen consumption rate is referred to free radical production rate.

BSA [2] = experiment: BSA's cystine oxidation by NaOCl (DTNB); conditions: NaOCl 1 mM
Experimental: BSA (0.5 mg/ml) in Imi HEPES buffer pH=7.2(50 mM) was incubated with sodium hypochlorite (1 mM) for 15 min. The protein was dialyzed for 2 h against 2×500 vol of HEPES buffer to remove free sodium hypochlorite. 301 DTNB 0.015 M in water was then added to the protein solution and color was measured at 420 nm. AMTPs were added to the protein sample to protect it against sodium hypochlorite [Hazell and Stocker, ibid.].
(§1) BSA's tryptophan oxidation and BSA's cystine oxidation were the models for protein damage by NaOCl (FIG. 11 and FIG. 12 respectively). BSA fluorescence intensity decreased following oxidative stress of NaOCI (1 mM). […] Out of the three AMTP compounds the most lipophilic (A) was best in preventing the damage and provided 94% protection on the protein.

BSA [3] = experiment: BSA oxidation by NaOCl, fluorescence (tryptophan); conditions: NaOCl 1 mM
Experimental: BSA (0.5 mg/ml) in a 1 ml HEPES Buffer pH=7.2(50 mM) was incubated for 15 min with 1 mM sodium hypochlorite. Various concentrations of AMTP (compound B) were added to protect the protein. The sample was diluted in 3 ml of HEPES buffer and fluorescence was measured (lex =280 nm, lem =345 nm) in a JASCO FP-770 spectrotluorometer. Fluorescence decav was due to tryptophan and tyrosine oxidation. Alternatively, BAS (0.5 mg/ml) in HEPES buffer (1 ml) was incubated with 2,2'-azobis-(2-amidinopropane)-HCL (AAPH) (a water soluble peroxy radical initiator) (50 mM) at 37° C. for a period of 4 h. The sample was diluted with 2 ml of the buffer and fluorescence was measured [Hazell, L. and Stocker, R. (1993) Biochem. J. 290:165-172].
as §1

Human skin fibroblasts = experiment: Chromium release from fibroblasts, killing by streptolysin S and glucose oxidase; format: cell-based
Experimental: Human skin fibroblasts were kindly supplied by the Department for Human Genetics at Hadassa Hospital in Jerusalem. The cells were grown in D-MEM medium supplemented with glutamine, penicillin, and streptomycin and 10% fetal calf serum [Ginsburg, I. et al. (1992) Inflammation 16:519-538]. Radiolabeled cell monolayers were prepared by the addition of 10 μCi/ml of [^51 Cr]NaCrO4 (New England Nuclear) to […] of trypsinized cells grown in 75-ml tissue culture bottles. The cells were then dispensed into 24-well tissue culture plates (Nunc, Roskilde, Denmark) and grown to confluency in a CO2 incubator.
Hydrogen peroxide flux was generated by the addition of glucose oxidase (0.5 units/ml) to the tissue culture media. Streptolysin S (SLS) of Croup A Streptococci (17 hemolytic units/ml) was employed as a membrane damaging agent.
Culture monolayers were treated for 1 h with the agents listed above. The cultures were monitored periodically for changes in cell morphology. To assess cytotoxicity, the supernatant fluids were removed and centrifuged at 2000 rpm for 2 min. The solubilized radioactivity was then determined in a Contron gamma counter. The total radioactivity associated with untreated controls was solubilized by the addition of 1 ml of 1% Triton X-100. (AMTPs influence on SLS hemolytic activity and on glucose oxidase activity was also tested. No influences were observed).
Fibroblasts in culture were exposed to a synergistic killing mechanism (streptolysin S in combination with an oxidant glucose oxidase) in a D-MEM culture medium that contained 1 mg/ml of glucose (about 0.5-1 mM of H2 O2 was produced after 1 hour of incubation at 37° C.). This system caused about 60% chromium released within an hour. […] The positive controls were DMTU and catalase.

[4] = Lipid hydroperoxides in partially oxidized SUV liposomes; conditions: 5 mM
Experimental: SUV liposomes were prepared from egg lecitin at 10% lipid concentration in a 50 ml HEPES buffer pH=6.9 according to already published procedures [Lichtenberg, D. and Barenholz. Y. (1988) Methods of Biochemical Analysis 33:337-462].
Lipid hydroperoxides were monitored by a modified micromolar sensitive spectroscopic method [Siddiqi, A. M. and Tappel, A. L. (1955) Chemist Analyst 44:52]. 50λ of lipids (liposomes or emulsion) were dissolved in 1 ml ethanol. 50λ of 50% potassium iodide solution were then added and the mixture was incubated for half an hour in the dark. The developed color was read in a spectrophotometer at 400 nm.
SUV Liposomes (12.5 mM) with certain degrees of oxidation were incubated with 5 mM AMTP molecules for period of 24 h. Peroxidation number (PN) was measured with potassium iodide in ethanol. AMTPs were able to decompose lipid hvdroperoxide and to reduce the peroxidation number (PN).

[5] = oil(mineral)/water and octanol/water partitioning; format: physicochemical; conditions: for logP: octanol/water, read-out: P (octanol/water) (converted); for P (oil/water): oil(mineral)/water
From the text: The basic chemical structure of the compounds of the invention includes the group --P--N=S, which resembles the thiourea --N--C=S core, in which the central carbon atom has been replaced by a phosphorus atom, to give --N--P=S, which is the characteristic functional group the novel compounds of the invention. This functional group is based on a primary amido thionophosphate (AMTP) chemical bond. The specific compounds shown in FIG. 1, which are only representative of the numerous possible compounds, differ in their oil(mineral) /water and octanol/water partitioning: […]

[6] = Solubility in D-MEM medium; format: physicochemical; conditions: not soluble above this concentration
[7] = Hydroxyl radical deoxyribose assay
Experimental: A modification of the assay described by Halliwell et al. [Halliwell, B. et al. (1987) Analyt. Biochem. 165:215-219] was developed. 2-Deoxyribose was purchased form Sigma Chemical Co. All other chemicals for the assay were purchased from BDH Chemicals Ltd. Degradation of deoxy ribose was achieved bv a mixture of Fe^2+, EDTA, ascorbic acid and H2 O2. […] The reaction mixture was incubated for 1 h at 37° C. Scavenging of hydroxyl radical was done by various concentrations of AMTP (compound C), and color was developed by reaction with thiobarbituric acid as described [Halliwell, B. et al., ibid.]
A^-1 =A0^-1 {1+K[S]×(KDR [DR])^-1 } Equation 1
where A is the absorbance in the presence of a scavenger S (AMTPs) at a concentration [S] and A0 is the absorbance in the absence of a scavenger KDR =3.1*10^9 (reaction constant between deoxyribose and OH. radical) [Ebert, M., et al. (1965) Pulse Radiolysis, Academic Press, London] and [DR]=18 mM. […] Considering the fast reaction between H2 O2 and Fe^2+ --NTA and the slow reaction rate between AMTP and hydrogen peroxide as monitored in the ^31 P experiments (FIG. 5), the light decay may be exclusively attributed to hydroxyl radical scavenging.

[8] = literature; cited from earlier work

Compound: O=C1O[C@H]([C@@H](O)CO)C(O)=C1O [Ascorbic acid]
- oxygen consumption [1]: significant oxygen consumption
- Rate of oxygen consumption [1]: 2.87e-05 M/min

Compound: CCCCNP(=S)(OCC)OCC [Compound A, n-butylamido diethylthioiiophosphate]
- protection of BSA's cystines (BSA [2]): strong protection
- protection of BSA fluorescence (BSA [3]): 94%
- inhibition at 2000 µM (Human skin fibroblasts; Homo sapiens, Skin fibroblast, 1 h, 2 mM, read-out: protection against cell killing): 10%
- reduction of PN, comparative ([4]; after 24 h): more effective in reducing PN
- logP [5]: 0.788
- P (oil/water) [5]: 4.82
- solubility [6]: ≤ 2000 µM

Compound: CCOP(=S)(NCCC(=O)O)OCC [Compound C, 2-carboxyamidodiethyl thionophosphate]
- reaction rate constant with hydroxyl radicals ([7]; calculated from equation 1, 18 mM deoxyribose): 1.5×10^9 M^-1 S^-1
- hydroxyl radical scavenging ([7]; deoxyribose degradation): potent hydroxyl radical scavengers
- toxic effects on the cell (Human skin fibroblasts; concentrations of up to 20 mM, compound alone): did not show any toxic effects
- protection against cell killing (Human skin fibroblasts; concentrations up to 10 mM, 60 min): 50-60%
- reduction of PN, comparative ([4]; first few hours of incubation): more efficient in the first few hours
- logP [5]: -0.357
- P (oil/water) [5]: 0.39

Compound: CNC(=S)NC [DMTU, N,N'-dimethyl thiourea]
- toxicity [8]: considered a toxic compound

Compound: N[C@@H](CSSC[C@H](N)C(=O)O)C(=O)O [cystine]
- oxygen consumption [1]: significant oxygen consumption
- Rate of oxygen consumption [1]: 2.35e-06 M/min

Compound: NC(=S)Nc1cccc2ccccc12 [α-naphthyl-thiourea]
- LD50 [8]: about 10 mg/kg
